Patent publication US6353029B1, “Storage stable tretinoin and 4-hydroxyanisole containing topical composition” (Bristol-Myers Squibb Company, priority 2000, dated 2002)
Where two headings read alike, the source gives them in different places.

What was measured:
[1] = Physical and chemical stability of tretinoin/4-HA cream compositions; type: physicochemical; conditions: creams with other emulsifiers and thickeners added, containing 4-HA
Excerpt: In an effort to develop a pharmaceutically elegant dermatological composition containing tretinoin and 4-HA and having long term storage stability (as hereinafter defined), the present inventors incorporated the tretinoin and 4-HA in cream compositions. The oil-in-water emulsion based creams broke. Most likely, this was due to the 4-HA component as it is soluble in both the oil phase and water phase.

[2] = cited from earlier work

Question: For `CC1=C(/C=C/C(C)=C/C=C/C(C)=C/C(=O)O)C(C)(C)CCC1` [tretinoin, all-trans retinoic acid], which stability of tretinoin [1] is on record?
Answer: very unstable

Question: What about the “shelf life of tretinoin” value ([2]; aqueous gel with Cremophor RH40 as solubilizing agent) of the same molecule?
Answer: 3 months

Question: And the “shelf life of tretinoin” value ([2]; aqueous gel without Cremophor RH40)?
Answer: 10 months

Question: What about the “shelf life of tretinoin” value ([2]; propylene glycol-alcohol solution at 25° C, 0.05% tretinoin) of the same molecule?
Answer: 6.7 months
